Experimental data published in patent publication US6335339B1, “Triazine antiviral compounds” (Scriptgen Pharmaceuticals, Inc., priority 1998, dated 2002).

Test system: HBV εRNA
Test: εRNA/oligonucleotide hybridization inhibition assay with rRNA competitor
Type: binding, Hepatitis B virus
Details: for IC50 / HBV + rRNA IC50 (μM): radiolabeled εRNA, 60-fold excess rRNA competitor; for Specificity: ratio RRE+rRNA IC50/εRNA+rRNA IC50, max = inactive in RRE assay
In short: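 Inhibition of hybridization between 25 nM [32P]-εRNA and 100 nM biotinylated complementary oligonucleotide (50 mM Tris-HCl pH 7.5, 200 mM KCl, 5 mM MgCl2, 60 min, 25 °C), hybrids captured by streptavidin filter and counted. Titrations 0.1-200 μM with 60-fold excess rRNA; specificity = RRE+rRNA IC50/εRNA+rRNA IC50.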

| SMILES | IC50 [µM] | Specificity | HBV + rRNA IC50 (μM) |
| --- | --- | --- | --- |
| Oc1ccc(Br)cc1C=NNc1nc(Nc2cccc(C(F)(F)F)c2)nc(N2CCOCC2)n1 [Compound 246] | 5.6 | max. | – |
| FC(F)(F)c1cccc(Nc2nc(Nc3cccc(Cl)c3)nc(N3CCOCC3)n2)c1 [Compound 247] | 6.7 | max. | – |
| Cc1ccc(Nc2nc(NCc3cc(F)ccc3F)nc(Nc3ccc([N+](=O)[O-])cc3)n2)cc1C [Compound 248] | – | – | inactive |
| Cc1ccc(Nc2nc(NN=Cc3ccc(Cl)cc3)nc(N3CCOCC3)n2)cc1 [Compound 249] | 47.2 | max. | – |
| Cc1ccc(Nc2nc(NNC(=O)c3ccccc3O)nc(Oc3ccc([N+](=O)[O-])cc3)n2)cc1C [Compound 250] | – | – | inactive |
| Cc1ccc(Nc2nc(Nc3cccc(C(F)(F)F)c3)nc(N3CCOCC3)n2)cc1C [Compound 251] | 45 | max. | – |
| COc1ccc(Nc2nc(NCCc3ccccc3)nc(N(C)C)n2)cc1OC [Compound 252] | – | – | inactive |
| CNc1nc(NN=Cc2ccccc2C(F)(F)F)nc(Nc2cccc(C(F)(F)F)c2)n1 [Compound 253] | 11 | 59.9 | – |
